In this data set the target is Voltage-dependent L-type calcium channel subunit alpha-1C (Cavia porcellus, UniProt O35505). Nature of the data set: Inhibition of Calcium channel in Cavia porcellus albino (guinea pig) ileocecal SMC assessed as inhibition of 80 mM KCl-induced contraction. The settings on record: for IC30: guinea pig.

Broadly, the IC50 is the concentration needed to halve the response being measured.

Voltage-dependent L-type calcium channel subunit alpha-1C, sequence (O35505 whole entry): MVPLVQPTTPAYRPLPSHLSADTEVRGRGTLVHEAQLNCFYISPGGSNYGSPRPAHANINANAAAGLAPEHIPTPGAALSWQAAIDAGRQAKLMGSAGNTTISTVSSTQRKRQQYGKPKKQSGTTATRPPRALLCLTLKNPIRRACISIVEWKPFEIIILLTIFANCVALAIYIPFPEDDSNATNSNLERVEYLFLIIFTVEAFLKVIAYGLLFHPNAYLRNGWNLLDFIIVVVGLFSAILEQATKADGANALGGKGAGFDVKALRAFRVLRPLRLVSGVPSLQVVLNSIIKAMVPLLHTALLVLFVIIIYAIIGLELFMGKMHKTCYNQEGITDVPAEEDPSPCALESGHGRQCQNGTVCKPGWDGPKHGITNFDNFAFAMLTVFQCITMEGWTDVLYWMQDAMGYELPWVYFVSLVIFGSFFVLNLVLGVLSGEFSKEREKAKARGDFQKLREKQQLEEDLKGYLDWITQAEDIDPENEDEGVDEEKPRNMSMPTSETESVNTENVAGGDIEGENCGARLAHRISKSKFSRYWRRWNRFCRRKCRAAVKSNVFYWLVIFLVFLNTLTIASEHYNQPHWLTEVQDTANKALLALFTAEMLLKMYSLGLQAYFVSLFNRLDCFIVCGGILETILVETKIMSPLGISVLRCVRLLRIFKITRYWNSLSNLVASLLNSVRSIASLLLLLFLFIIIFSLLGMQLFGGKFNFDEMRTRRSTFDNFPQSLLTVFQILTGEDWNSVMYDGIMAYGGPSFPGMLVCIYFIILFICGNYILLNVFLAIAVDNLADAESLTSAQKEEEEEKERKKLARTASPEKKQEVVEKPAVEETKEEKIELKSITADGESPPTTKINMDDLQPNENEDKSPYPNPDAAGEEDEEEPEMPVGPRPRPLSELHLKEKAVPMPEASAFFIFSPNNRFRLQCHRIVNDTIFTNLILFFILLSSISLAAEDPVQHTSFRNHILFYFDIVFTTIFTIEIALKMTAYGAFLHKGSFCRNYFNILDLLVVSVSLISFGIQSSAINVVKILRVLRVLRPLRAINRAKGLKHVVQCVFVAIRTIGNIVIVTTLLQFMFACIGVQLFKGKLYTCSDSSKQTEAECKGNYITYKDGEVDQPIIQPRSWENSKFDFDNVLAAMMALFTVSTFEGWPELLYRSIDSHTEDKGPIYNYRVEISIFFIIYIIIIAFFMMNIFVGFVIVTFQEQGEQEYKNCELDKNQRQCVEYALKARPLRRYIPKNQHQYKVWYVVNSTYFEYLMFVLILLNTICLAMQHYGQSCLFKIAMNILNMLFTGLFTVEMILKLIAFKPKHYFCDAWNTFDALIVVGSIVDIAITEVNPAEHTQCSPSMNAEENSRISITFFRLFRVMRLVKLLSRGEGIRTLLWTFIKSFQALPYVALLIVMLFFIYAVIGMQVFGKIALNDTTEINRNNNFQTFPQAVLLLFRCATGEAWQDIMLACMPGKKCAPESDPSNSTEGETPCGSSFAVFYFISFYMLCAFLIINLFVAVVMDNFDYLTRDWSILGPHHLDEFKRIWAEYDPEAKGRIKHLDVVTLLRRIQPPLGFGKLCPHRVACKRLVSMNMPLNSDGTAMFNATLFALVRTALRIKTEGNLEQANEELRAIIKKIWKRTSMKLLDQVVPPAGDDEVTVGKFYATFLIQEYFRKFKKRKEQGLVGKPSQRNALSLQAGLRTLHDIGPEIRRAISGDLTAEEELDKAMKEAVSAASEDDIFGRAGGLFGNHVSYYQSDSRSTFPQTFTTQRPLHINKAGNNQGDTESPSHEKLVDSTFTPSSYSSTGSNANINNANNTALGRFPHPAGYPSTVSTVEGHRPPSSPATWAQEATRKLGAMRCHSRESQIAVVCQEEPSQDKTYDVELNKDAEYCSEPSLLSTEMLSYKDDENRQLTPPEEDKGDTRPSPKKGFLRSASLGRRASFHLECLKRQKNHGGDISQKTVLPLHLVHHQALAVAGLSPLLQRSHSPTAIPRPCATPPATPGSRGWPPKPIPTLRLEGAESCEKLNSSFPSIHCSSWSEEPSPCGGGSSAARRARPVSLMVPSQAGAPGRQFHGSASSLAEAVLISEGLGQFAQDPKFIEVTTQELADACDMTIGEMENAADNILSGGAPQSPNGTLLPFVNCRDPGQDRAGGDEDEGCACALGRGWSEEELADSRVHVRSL

In the case of `CCOC(=O)C1=C(C)NC(C)=C(C(=O)OCC)C1c1ccc(-c2cc(=O)cc(-c3ccccc3)o2)cc1`, the half-maximal inhibitory concentration (IC50) was determined as 12.2 µM and the IC30 was 6.12 ×10⁻⁶ M.

Consider `CCOC(=O)C1=C(C)NC(C)=C(C(=O)OC)C1c1cc(=O)cc(C)o1` (stereo unspecified), for which the IC50 is 1.63 µM and the IC30 stood at 5.38 ×10⁻⁷ M.

As for `CCOC(=O)C1=C(C)NC(C)=C(C(=O)OC)C1c1cc(=O)cc(-c2ccccc2)o1` (stereo unspecified), the concentration for half-maximal inhibition (IC50) amounted to 2.03 µM and the IC30 amounted to 7.18 ×10⁻⁷ M.

Take `CCOC(=O)C1=C(C)NC(C)=C(C(=O)OCC)C1c1ccc(-c2cc(=O)cc(C)o2)cc1`: the concentration for half-maximal inhibition (IC50) came out at 2.14 µM and the IC30 was 7.2 ×10⁻⁷ M.

On to `COC(=O)C1=C(C)NC(C)=C(C(=O)OC)C1c1ccc(-c2cc(=O)cc(C)o2)cc1`, for which the IC50 is 17.8 µM and the IC30 is on record as 3.67 ×10⁻⁶ M.

On to `CCOC(=O)C1=C(C)NC(C)=C(C(=O)OCC)C1c1cc(=O)cc(C)o1`, for which the concentration for half-maximal inhibition (IC50) worked out at 35.9 µM and the IC30 amounted to 1.45 ×10⁻⁶ M.

As for `CCOC(=O)C1=C(C)NC(C)=C(C(=O)OCC)C1c1cc(=O)cc(-c2ccccc2)o1`, the 50% inhibitory concentration (IC50) was found to be 3.24 µM and the IC30 stood at 1.01 ×10⁻⁶ M.

In the case of `CCOC(=O)C1=C(C)NC(C)=C(C(=O)OC)C1c1ccc(-c2cc(=O)cc(-c3ccccc3)o2)cc1` (stereo unspecified), the IC50 stood at 94.4 µM and the IC30 turned out to be 4.62 ×10⁻⁶ M.

`COC(=O)C1=C(C)NC(C)=C(C(=O)OC)C1c1ccc(-c2cc(=O)cc(-c3ccccc3)o2)cc1`: the 50% inhibitory concentration (IC50) came to 4.71 µM and the IC30 is reported as 1.26 ×10⁻⁶ M.

`COC(=O)C1=C(C)NC(C)=C(C(=O)OC)C1c1ccccc1[N+](=O)[O-]` [NIFEDIPINE]: the IC30 was determined as 1.6 ×10⁻⁸ M.

Regarding `CCOC(=O)C1=C(C)NC(C)=C(C(=O)OC)C1c1ccc(-c2cc(=O)cc(C)o2)cc1` (stereo unspecified), the IC50 was 86.1 µM and the IC30 is 4.62 ×10⁻⁶ M.

(Values after ChEMBL document CHEMBL3046466 (Med Chem Res, 2012).)
